What was measured:
[1] = test system: LPS endotoxin shock model; assay: Survival in rodent model of LPS endotoxin shock; assay type: in vivo, C57BL/6J mice; conditions: LPS 5 mg/kg iv; 50 mg/kg 25HC3S ip 2 hours prior to LPS; six days after LPS; N=10
Procedure: The subjects for the study were 20 male C57BL/6J mice (20-22 weeks of age, 27-35 g).
A solution formulation of 25HC3S and its respective vehicle was used for the study. The vehicle was a solution of 4% (w/v) hydroxypropyl betadex, 10% (w/v) dextrose, with 10 mM sodium phosphate buffer in sterile water. Vehicle was stored at 2-8° C. storage and placed at room temperature for 30 minutes prior to dosing.
25HC3S sodium salt was pre-dissolved into the vehicle solution to result in a drug concentration of 5 mg/mL. The 25HC3S solution was ready-to-use at the start of dosing. It was also stored at 2-8° C. storage and placed at room temperature for 30 minutes prior to dosing the mice.
50 mg/kg of 25HC3S in vehicle or vehicle alone (N=10/group) were administered to mice once by intraperitoneal injection 2 hours prior to LPS delivery. A semi-lethal dose of LPS (5 mg/kg) was given by intravenous injection to the tail vein in order to induce an acute inflammatory response that mimics systemic sepsis-like conditions.
Mice were monitored for survival for 6 days after 25HC3S and LPS treatments. Animal checks for mortality were performed twice daily during the 6 day observation period. Animals were examined for any altered clinical signs, including gross motor and behavioral activity, and observable changes in appearance. […]

[2] = Osmolality of 30 mg/mL 25HC3S, 250 mg/mL HPbCD, 10 mM phosphate solution; assay type: physicochemical; conditions: 30 mg/mL 25HC3S sodium salt, 10 mM sodium phosphate buffer in water
Procedure: The optimal concentration of HPbCD to solubilize a high amount of 25HC3S, and to contain a small amount of buffer (10 mM phosphate buffer) to minimize pH changes on stability, is 250 mg/mL HPbCD. The solution of 30 mg/mL 25HC3S sodium salt, 250 mg/mL HPbCD with 10 mM sodium phosphate buffer in water has an osmolality of approximately 320 mmol/kg. Isotonic solutions range from 270-340 mmol/kg. Higher concentrations of HPbCD greater than 250 mg/mL with higher than 30 mg/mL concentrations of 25HC3S lead to hypertonic solutions. Hypertonic solutions can cause pain upon subcutaneous and intramuscular injection. Conversely, concentrations of HPbCD much less than 250 mg/mL with much less than 30 mg/mL concentrations of 25HC3S require the addition of an isotonic agent, such as sodium chloride or mannitol, to bring the isotonicity into the expected range for a parenteral dosage form.

[3] = test system: hepatic apoptosis-related genes; assay: Hepatic gene expression by RT2 Profiler PCR Array in APAP overdosed mice; assay type: in vivo, C57BL/6J mice; conditions: liver, APAP 350 mg/kg mice, 24 h
Procedure: A composition comprising 25 mg/kg of 25HC3S sodium salt in vehicle was administered intravenously to the experimental mice 0.5 hours after APAP administration. Mortality was monitored in the high dose mice. In the low dose mice, the liver function markers aspartate aminotransferase (AST), alanine aminotransferase (ALT), alkaline phosphatase (ALK) and lactate dehydrogenase (LDH), were measured in serum. Impacts on gene expression were determined by Quantitative Real-time PCR. Membrane potentials were measured using JC1 staining and flow cytometry.
Changes in gene regulation in low dose mice 24 hours after the administration of vehicle and vehicle plus 25HC3S were investigated. The 12-week-old male C57BL/6J mice had received 350 mg/kg APAP via intraperitoneal injection and 30 min later received 7.6% glucose/H2O (C) or vehicle (20% PG/4% HCD/7.6% glucose, P) or 25HC3S (3S). Twenty four hours following APAP injection, liver tissue was harvested and total mRNA was extracted and analyzed using an RT^2 Profiler™ PCR Array assay. The listed genes are involved in apoptosis and/or immune system regulation.

[4] = Compatibility of 25HC3S for Injection with container closure system; assay type: physicochemical; conditions: 10 mL glass vial, FluroTec coated stopper; up to 12 months 2-8°C, 6 months 25°C/60% RH and 40°C/75% RH, inverted
Procedure: 25HC3S for Injection is a sterile powder, for injection solution. The 25HC3S stability with the 10 mL glass vial and FluroTec® coated stopper was studied up to 12 months at 2-8° C., 6 months at 25° C./60% RH, and 6 months at 40° C./75% RH with vials stored in the inverted orientation.

[5] = assay type: in vivo, Beagle dogs
Procedure: The objectives of this study were to evaluate the potential toxicity of 25HC3S when administered once daily by subcutaneous injection to Beagle dogs for 14 consecutive days. 25HC3S sodium salt in the vehicle (250 mg/mL hydroxypropyl-beta-cyclodextrin with 10 mM sodium phosphate buffer [approximate pH 7.6] in sterile water for irrigation) was administered via subcutaneous injection in the dorsoscapular area once daily for 14 consecutive days to 3 groups (Groups 2-4) of Beagle dogs. Dosage levels were 3, 10, and 30 mg/kg/day for Groups 2, 3, and 4, respectively. […] The dose volume was 1, 0.1, 0.33, and 1 mL/kg for Groups 1, 2, 3, and 4, respectively. Each group consisted of 4 males and 4 females. The animals were observed twice daily for mortality and moribundity. Clinical examinations (including injection site observations) were performed once daily for at least 6 days, including the day of randomization, prior to randomization, prior to dose administration, immediately following dose administration, and at approximately 2 hours following dose administration. Blood samples for toxicokinetic evaluation were collected from all animals prior to dosing (study day 0 only) and at 0.5, 1, 2, 4, 8, and 24 hours after dosing on study days 0 and 13.

[6] = Solubility of 25HC3S in 10 mM sodium phosphate buffer pH 7.6 with HPbCD at 5, 15 and 25°C; assay type: physicochemical; conditions: 25°C/60% RH, supernatant

## C[C@H](CCCC(C)(C)O)[C@H]1CC[C@H]2[C@@H]3CC=C4C[C@@H](OS(=O)(=O)[O-])CC[C@]4(C)[C@H]3CC[C@]12C.[Na+] [25HC3S, 5-cholesten-3, 25-diol, 3-sulfate]
[1]
  mice that had died: 40%
[2]
  Osmolality: approximately 320 mmol/kg
[3]; vs P (vehicle) group
  Cd40 (NM_011611) gene expression, Fold vs P: −2.7 Fold
  Fasl (NM_010177) gene expression, Fold vs P: −2.6 Fold
  Gadd45a (NM_007836) gene expression, Fold vs P: −10.9 Fold
  Nol3 (NM_030152) gene expression, Fold vs P: 3.6 Fold
  Pvr (NM_027514) gene expression, Fold vs P: −3.3 Fold
  Tnf (NM_013693) gene expression, Fold vs P: −2.4 Fold
[3]; vs control (C) group
  Apaf1 (NM_009741) gene expression, Fold vs C: −2.2 Fold
  Cd40 (NM_011611) gene expression, Fold vs C: −2.1 Fold
  Fasl (NM_010177) gene expression, Fold vs C: −2.1 Fold
  Gadd45a (NM_007836) gene expression, Fold vs C: −9.3 Fold
  Nol3 (NM_030152) gene expression, Fold vs C: 5.3 Fold
  Pvr (NM_027514) gene expression, Fold vs C: −3.9 Fold
  Tnfrsf11b (NM_008764) gene expression, Fold vs C: −2.9 Fold
[4]
  compatibility with container closure system: good compatibility
[5]; Beagle dogs, sc 3, 10, 30 mg/kg/day, 14 days
  survival to the scheduled necropsy: All animals survived
[5]; dog, in vivo, sc
  injection site changes: no injection site changes appeared directly attributable
[5]; dog, in vivo, sc, 30 mg/kg/day
  mean AUClast: 19,877 ng*hr/mL
  mean C.: 7,753 ng/mL
[6]; HPbCD 0 mg/mL
  pH of Filtrate Day 3: 7.532
[6]; HPbCD 250 mg/mL
  pH of Filtrate Day 3: 7.842
